In paper PMC3694096, “Development of Novel In Vivo Chemical Probes to Address CNS Protein Kinase Involvement in Synaptic Dysfunction” (PLoS ONE, 2013):

Legend:
ALK = target: T1, ALK (Homo sapiens, UniProt Q9UM73); experiment: Kinome profiler screen; assay type: biochemical; details: at 20,000 nM inhibitor; kinase activity remaining
T1 construct: purchased Millipore KinaseProfiler

Fyn = target: T2, Fyn (Homo sapiens, UniProt P06241); experiment: Kinome profiler screen; assay type: biochemical; details: at 20,000 nM inhibitor; kinase activity remaining
T2 construct: purchased Millipore KinaseProfiler

Mer = target: T3, Mer (Homo sapiens, UniProt Q12866); experiment: Kinome profiler screen; assay type: biochemical; details: at 20,000 nM inhibitor; kinase activity remaining
T3 construct: purchased Millipore KinaseProfiler

MEK1 = target: T4, MEK1 (Homo sapiens, UniProt Q02750); experiment: Kinome profiler screen; assay type: biochemical; details: at 20,000 nM inhibitor; kinase activity remaining
T4 construct: purchased Millipore KinaseProfiler

EGFR(T790M) = target: T5, EGFR(T790M) (Homo sapiens, UniProt P00533, T790M); experiment: Kinome profiler screen; assay type: biochemical; details: at 20,000 nM inhibitor; kinase activity remaining
T5 construct: purchased Millipore KinaseProfiler

CDK5/p35 = target: T6, CDK5/p35 (Homo sapiens, UniProt Q00535); experiment: Kinome profiler screen; assay type: biochemical; details: at 20,000 nM inhibitor; kinase activity remaining
T6 construct: purchased Millipore KinaseProfiler

SRPK2 = target: T7, SRPK2 (Homo sapiens, UniProt P78362); experiment: Kinome profiler screen; assay type: biochemical; details: at 20,000 nM inhibitor; kinase activity remaining
T7 construct: purchased Millipore KinaseProfiler
T7 sequence (P78362 whole entry): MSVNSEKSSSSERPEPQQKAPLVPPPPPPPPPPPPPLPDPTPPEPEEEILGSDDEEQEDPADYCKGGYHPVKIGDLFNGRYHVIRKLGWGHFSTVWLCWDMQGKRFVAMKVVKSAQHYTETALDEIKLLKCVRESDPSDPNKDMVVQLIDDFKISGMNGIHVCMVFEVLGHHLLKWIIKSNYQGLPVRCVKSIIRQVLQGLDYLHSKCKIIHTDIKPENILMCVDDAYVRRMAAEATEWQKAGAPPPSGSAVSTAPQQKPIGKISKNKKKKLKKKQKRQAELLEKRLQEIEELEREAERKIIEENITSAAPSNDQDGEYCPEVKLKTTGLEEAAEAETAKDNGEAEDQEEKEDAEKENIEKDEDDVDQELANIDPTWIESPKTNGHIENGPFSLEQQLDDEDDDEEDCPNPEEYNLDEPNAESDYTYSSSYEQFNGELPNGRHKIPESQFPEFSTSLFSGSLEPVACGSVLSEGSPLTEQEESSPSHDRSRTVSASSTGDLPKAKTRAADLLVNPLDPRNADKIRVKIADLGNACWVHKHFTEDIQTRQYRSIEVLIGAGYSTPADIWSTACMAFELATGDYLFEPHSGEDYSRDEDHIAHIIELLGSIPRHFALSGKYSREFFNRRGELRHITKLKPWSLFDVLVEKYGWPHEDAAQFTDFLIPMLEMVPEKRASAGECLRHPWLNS

PKG1β = target: T8, PKG1β (Homo sapiens, UniProt Q13976); experiment: Kinome profiler screen; assay type: biochemical; details: at 20,000 nM inhibitor; kinase activity remaining
T8 construct: purchased Millipore KinaseProfiler

JNK3 = JNK3 (Homo sapiens, UniProt P53779); experiment: Kinome profiler screen; assay type: biochemical
JNK3, sequence (P53779 whole entry): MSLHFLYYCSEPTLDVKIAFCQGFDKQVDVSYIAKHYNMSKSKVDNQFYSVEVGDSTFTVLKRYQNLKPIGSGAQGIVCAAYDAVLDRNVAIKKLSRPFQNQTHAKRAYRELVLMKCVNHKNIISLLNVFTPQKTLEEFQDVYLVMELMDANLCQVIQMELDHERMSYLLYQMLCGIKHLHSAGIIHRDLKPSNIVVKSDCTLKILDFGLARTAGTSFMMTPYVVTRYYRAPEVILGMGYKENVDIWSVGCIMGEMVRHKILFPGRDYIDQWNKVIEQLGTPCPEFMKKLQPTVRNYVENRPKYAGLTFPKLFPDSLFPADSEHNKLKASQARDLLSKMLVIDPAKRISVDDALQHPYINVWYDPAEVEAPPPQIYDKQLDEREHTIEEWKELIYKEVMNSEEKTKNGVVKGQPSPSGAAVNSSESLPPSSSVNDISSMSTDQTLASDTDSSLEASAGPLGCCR

CDK5/p25 = target: T9, CDK5/p25 (Homo sapiens, UniProt Q00535); experiment: Kinome profiler screen; assay type: biochemical; details: at 20,000 nM inhibitor; kinase activity remaining
T9 construct: purchased Millipore KinaseProfiler

[1] = target: T10, PI3 Kinase (p110α/p65α)(m) (Mus musculus, UniProt P42337); experiment: Kinome profiler screen; assay type: biochemical; details: at 20,000 nM inhibitor; kinase activity remaining
T10 construct: purchased Millipore KinaseProfiler

PI3 Kinase (p110β/p85α) = target: T11, PI3 Kinase (p110β/p85α) (Homo sapiens, UniProt P42338); experiment: Kinome profiler screen; assay type: biochemical; details: at 20,000 nM inhibitor; kinase activity remaining
T11 construct: purchased Millipore KinaseProfiler

ErbB4 = target: T12, ErbB4 (Homo sapiens, UniProt Q15303); experiment: Kinome profiler screen; assay type: biochemical; details: at 20,000 nM inhibitor; kinase activity remaining
T12 construct: purchased Millipore KinaseProfiler

cKit = target: T13, cKit (Homo sapiens, UniProt P10721); experiment: Kinome profiler screen; assay type: biochemical; details: at 20,000 nM inhibitor; kinase activity remaining
T13 construct: purchased Millipore KinaseProfiler

Txk = target: T14, Txk (Homo sapiens, UniProt P42681); experiment: Kinome profiler screen; assay type: biochemical; details: at 20,000 nM inhibitor; kinase activity remaining
T14 construct: purchased Millipore KinaseProfiler

CaMKIV = target: T15, CaMKIV (Homo sapiens, UniProt Q16566); experiment: Kinome profiler screen; assay type: biochemical; details: at 20,000 nM inhibitor; kinase activity remaining
T15 construct: purchased Millipore KinaseProfiler

TBK1 = target: T16, TBK1 (Homo sapiens, UniProt Q9UHD2); experiment: Kinome profiler screen; assay type: biochemical; details: at 20,000 nM inhibitor; kinase activity remaining
T16 construct: purchased Millipore KinaseProfiler

TAO2 = target: T17, TAO2 (Homo sapiens, UniProt Q9UL54); experiment: Kinome profiler screen; assay type: biochemical; details: at 20,000 nM inhibitor; kinase activity remaining
T17 construct: purchased Millipore KinaseProfiler
T17 sequence (Q9UL54 whole entry): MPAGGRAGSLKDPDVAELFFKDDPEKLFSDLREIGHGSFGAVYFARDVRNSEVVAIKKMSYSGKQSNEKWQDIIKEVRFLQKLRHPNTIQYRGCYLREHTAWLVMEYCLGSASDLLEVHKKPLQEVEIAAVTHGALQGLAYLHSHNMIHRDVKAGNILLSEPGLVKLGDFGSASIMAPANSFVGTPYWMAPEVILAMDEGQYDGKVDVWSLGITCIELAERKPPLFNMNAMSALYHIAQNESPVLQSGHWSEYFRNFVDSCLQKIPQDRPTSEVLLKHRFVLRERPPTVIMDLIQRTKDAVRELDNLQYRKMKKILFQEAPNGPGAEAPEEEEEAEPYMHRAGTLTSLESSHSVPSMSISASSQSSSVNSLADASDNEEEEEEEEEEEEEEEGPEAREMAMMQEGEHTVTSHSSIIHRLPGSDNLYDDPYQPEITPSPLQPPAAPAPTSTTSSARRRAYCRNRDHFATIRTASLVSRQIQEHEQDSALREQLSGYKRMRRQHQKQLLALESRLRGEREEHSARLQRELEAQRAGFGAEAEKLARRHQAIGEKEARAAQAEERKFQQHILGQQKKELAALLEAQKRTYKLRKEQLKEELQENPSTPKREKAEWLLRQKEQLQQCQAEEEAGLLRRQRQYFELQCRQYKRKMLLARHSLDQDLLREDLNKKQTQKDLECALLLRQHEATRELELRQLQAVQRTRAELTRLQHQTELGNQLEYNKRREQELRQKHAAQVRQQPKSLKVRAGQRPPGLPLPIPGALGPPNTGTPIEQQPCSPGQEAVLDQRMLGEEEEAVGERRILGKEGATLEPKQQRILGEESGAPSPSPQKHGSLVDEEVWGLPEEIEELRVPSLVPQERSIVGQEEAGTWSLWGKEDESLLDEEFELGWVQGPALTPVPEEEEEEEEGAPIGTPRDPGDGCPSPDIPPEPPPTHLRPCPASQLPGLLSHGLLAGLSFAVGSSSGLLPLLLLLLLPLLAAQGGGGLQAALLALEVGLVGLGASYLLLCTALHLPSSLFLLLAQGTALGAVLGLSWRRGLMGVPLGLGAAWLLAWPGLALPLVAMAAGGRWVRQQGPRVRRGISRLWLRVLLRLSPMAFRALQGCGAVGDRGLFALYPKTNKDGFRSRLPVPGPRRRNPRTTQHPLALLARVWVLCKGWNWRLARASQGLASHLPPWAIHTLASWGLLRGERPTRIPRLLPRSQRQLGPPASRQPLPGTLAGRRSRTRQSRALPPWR

Hck = target: T18, Hck (Homo sapiens, UniProt P08631); experiment: Kinome profiler screen; assay type: biochemical; details: at 20,000 nM inhibitor; kinase activity remaining
T18 construct: purchased Millipore KinaseProfiler

IKKβ = target: T19, IKKβ (Homo sapiens, UniProt O14920); experiment: Kinome profiler screen; assay type: biochemical; details: at 20,000 nM inhibitor; kinase activity remaining
T19 construct: purchased Millipore KinaseProfiler

Plk1 = target: T20, Plk1 (Homo sapiens, UniProt P53350); experiment: Kinome profiler screen; assay type: biochemical; details: at 20,000 nM inhibitor; kinase activity remaining
T20 construct: purchased Millipore KinaseProfiler

Flt3 = target: T21, Flt3 (Homo sapiens, UniProt P36888); experiment: Kinome profiler screen; assay type: biochemical; details: at 20,000 nM inhibitor; kinase activity remaining
T21 construct: purchased Millipore KinaseProfiler

SGK3 = target: T22, SGK3 (Homo sapiens, UniProt Q96BR1); experiment: Kinome profiler screen; assay type: biochemical; details: at 20,000 nM inhibitor; kinase activity remaining
T22 construct: purchased Millipore KinaseProfiler

TLK2 = target: T23, TLK2 (Homo sapiens, UniProt Q86UE8); experiment: Kinome profiler screen; assay type: biochemical; details: at 20,000 nM inhibitor; kinase activity remaining
T23 construct: purchased Millipore KinaseProfiler

Abl = target: T24, Abl (Homo sapiens, UniProt P00519); experiment: Kinome profiler screen; assay type: biochemical; details: at 20,000 nM inhibitor; kinase activity remaining
T24 construct: purchased Millipore KinaseProfiler

[2] = target: T25, PI3 Kinase (p110α/p85α)(m) (Mus musculus, UniProt P42337); experiment: Kinome profiler screen; assay type: biochemical; details: at 20,000 nM inhibitor; kinase activity remaining
T25 construct: purchased Millipore KinaseProfiler

BrSK1 = target: T26, BrSK1 (Homo sapiens, UniProt Q8TDC3); experiment: Kinome profiler screen; assay type: biochemical
T26 construct: purchased Millipore KinaseProfiler

MAPKAP-K3 = target: T27, MAPKAP-K3 (Homo sapiens, UniProt Q16644); experiment: Kinome profiler screen; assay type: biochemical; details: at 20,000 nM inhibitor; kinase activity remaining
T27 construct: purchased Millipore KinaseProfiler

Met(Y1248H) = target: T28, Met(Y1248H) (Homo sapiens, UniProt P08581, Y1230H); experiment: Kinome profiler screen; assay type: biochemical; details: at 20,000 nM inhibitor; kinase activity remaining
T28 construct: purchased Millipore KinaseProfiler

FGFR1 = target: T29, FGFR1 (Homo sapiens, UniProt P11362); experiment: Kinome profiler screen; assay type: biochemical; details: at 20,000 nM inhibitor; kinase activity remaining
T29 construct: purchased Millipore KinaseProfiler

IRAK4 = target: T30, IRAK4 (Homo sapiens, UniProt Q9NWZ3); experiment: Kinome profiler screen; assay type: biochemical; details: at 20,000 nM inhibitor; kinase activity remaining
T30 construct: purchased Millipore KinaseProfiler
T30 sequence (Q9NWZ3 whole entry): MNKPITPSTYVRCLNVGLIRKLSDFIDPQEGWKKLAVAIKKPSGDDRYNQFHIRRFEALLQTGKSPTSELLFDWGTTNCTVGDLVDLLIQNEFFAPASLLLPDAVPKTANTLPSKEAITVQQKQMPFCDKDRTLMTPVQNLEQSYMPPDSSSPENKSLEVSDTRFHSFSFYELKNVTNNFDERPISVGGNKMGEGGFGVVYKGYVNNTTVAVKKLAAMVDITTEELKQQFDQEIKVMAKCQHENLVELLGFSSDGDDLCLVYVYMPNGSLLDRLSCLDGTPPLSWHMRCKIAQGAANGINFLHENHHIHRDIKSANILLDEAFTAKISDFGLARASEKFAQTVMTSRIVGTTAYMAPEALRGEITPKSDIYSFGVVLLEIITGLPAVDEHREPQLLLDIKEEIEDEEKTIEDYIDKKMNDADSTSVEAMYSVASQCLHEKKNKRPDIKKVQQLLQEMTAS

IR = target: T31, IR (Homo sapiens, UniProt P06213); experiment: Kinome profiler screen; assay type: biochemical; details: at 20,000 nM inhibitor; kinase activity remaining
T31 construct: purchased Millipore KinaseProfiler

PI3K-C2α = target: T32, PI3K-C2α (Homo sapiens, UniProt O00443); experiment: Kinome profiler screen; assay type: biochemical
T32 construct: purchased Millipore
T32 sequence (O00443 whole entry): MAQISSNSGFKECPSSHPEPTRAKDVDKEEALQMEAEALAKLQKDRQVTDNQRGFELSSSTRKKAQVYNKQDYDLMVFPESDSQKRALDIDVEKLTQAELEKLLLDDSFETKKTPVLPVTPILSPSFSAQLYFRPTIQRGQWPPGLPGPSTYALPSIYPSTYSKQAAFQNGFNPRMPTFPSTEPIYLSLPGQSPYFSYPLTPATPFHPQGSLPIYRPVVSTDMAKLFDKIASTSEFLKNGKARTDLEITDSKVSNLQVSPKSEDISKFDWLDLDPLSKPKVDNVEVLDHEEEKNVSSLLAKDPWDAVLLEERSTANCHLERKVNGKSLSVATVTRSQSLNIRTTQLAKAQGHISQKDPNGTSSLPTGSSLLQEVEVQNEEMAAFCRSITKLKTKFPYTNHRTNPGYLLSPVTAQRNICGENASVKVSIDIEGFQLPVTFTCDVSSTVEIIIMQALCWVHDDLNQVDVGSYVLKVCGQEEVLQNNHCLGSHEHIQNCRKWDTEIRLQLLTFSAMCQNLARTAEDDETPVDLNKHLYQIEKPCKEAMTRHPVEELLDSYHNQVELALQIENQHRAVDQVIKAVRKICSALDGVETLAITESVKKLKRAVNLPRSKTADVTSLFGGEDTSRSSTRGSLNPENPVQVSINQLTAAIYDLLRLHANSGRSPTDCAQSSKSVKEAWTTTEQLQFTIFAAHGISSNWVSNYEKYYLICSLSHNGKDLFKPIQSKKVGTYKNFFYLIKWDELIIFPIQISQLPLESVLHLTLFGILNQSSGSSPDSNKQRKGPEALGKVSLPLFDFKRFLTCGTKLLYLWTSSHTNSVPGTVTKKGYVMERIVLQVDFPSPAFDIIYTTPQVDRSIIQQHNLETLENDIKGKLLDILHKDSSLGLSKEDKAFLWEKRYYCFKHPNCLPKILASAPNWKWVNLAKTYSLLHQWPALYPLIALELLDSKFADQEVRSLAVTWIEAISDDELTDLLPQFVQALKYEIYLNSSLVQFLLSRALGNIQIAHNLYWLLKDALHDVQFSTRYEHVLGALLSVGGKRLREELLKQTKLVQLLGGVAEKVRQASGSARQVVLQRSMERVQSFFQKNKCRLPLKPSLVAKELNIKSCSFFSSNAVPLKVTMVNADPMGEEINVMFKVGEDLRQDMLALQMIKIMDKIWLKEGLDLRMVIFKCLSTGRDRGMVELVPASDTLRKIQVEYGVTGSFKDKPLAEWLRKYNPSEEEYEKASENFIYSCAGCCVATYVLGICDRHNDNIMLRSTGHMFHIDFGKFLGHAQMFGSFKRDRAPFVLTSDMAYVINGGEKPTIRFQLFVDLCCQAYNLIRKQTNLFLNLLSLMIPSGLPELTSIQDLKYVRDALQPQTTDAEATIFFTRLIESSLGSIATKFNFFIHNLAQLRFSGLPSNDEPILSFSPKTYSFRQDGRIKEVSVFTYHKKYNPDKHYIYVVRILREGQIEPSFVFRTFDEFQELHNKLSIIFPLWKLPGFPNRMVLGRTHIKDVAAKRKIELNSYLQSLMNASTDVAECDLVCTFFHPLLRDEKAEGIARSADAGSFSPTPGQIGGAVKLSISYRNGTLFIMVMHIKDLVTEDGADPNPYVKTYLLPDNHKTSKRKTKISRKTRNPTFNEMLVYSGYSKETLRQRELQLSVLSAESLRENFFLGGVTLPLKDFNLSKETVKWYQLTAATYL

Tie2 = target: T33, Tie2 (Homo sapiens, UniProt Q02763); experiment: Kinome profiler screen; assay type: biochemical; details: at 20,000 nM inhibitor; kinase activity remaining
T33 construct: purchased Millipore KinaseProfiler

ZAP-70 = target: T34, ZAP-70 (Homo sapiens, UniProt P43403); experiment: Kinome profiler screen; assay type: biochemical; details: at 20,000 nM inhibitor; kinase activity remaining
T34 construct: purchased Millipore KinaseProfiler

Fms(Y969C) = target: T35, Fms(Y969C) (Homo sapiens, UniProt P07333, Y969C); experiment: Kinome profiler screen; assay type: biochemical; details: at 20,000 nM inhibitor; kinase activity remaining
T35 construct: purchased Millipore KinaseProfiler

DRAK1 = target: T36, DRAK1 (Homo sapiens, UniProt Q9UEE5); experiment: Kinome profiler screen; assay type: biochemical; details: at 20,000 nM inhibitor; kinase activity remaining
T36 construct: purchased Millipore KinaseProfiler

Abl (M351T) = target: T37, Abl (M351T) (Homo sapiens, UniProt P00519, M351T); experiment: Kinome profiler screen; assay type: biochemical; details: at 20,000 nM inhibitor; kinase activity remaining
T37 construct: purchased Millipore KinaseProfiler

CLK2 = target: T38, CLK2 (Homo sapiens, UniProt P49760); experiment: Kinome profiler screen; assay type: biochemical; details: at 20,000 nM inhibitor; kinase activity remaining
T38 construct: purchased Millipore KinaseProfiler
T38 sequence (P49760 whole entry): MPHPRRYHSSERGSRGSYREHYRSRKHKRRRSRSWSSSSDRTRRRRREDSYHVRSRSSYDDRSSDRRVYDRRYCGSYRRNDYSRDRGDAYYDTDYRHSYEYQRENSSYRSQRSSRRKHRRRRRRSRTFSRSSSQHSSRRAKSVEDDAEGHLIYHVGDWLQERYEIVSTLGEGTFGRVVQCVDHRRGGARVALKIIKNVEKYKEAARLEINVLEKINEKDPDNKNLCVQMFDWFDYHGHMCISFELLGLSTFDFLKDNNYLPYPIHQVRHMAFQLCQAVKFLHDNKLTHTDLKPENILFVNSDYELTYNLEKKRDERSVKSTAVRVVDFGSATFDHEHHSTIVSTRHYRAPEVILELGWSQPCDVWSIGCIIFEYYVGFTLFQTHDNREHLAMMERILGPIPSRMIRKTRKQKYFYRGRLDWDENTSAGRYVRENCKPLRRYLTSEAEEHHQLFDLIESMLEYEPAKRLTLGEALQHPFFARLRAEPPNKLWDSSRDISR

ASK1 = target: T39, ASK1 (Homo sapiens, UniProt Q99683); experiment: Kinome profiler screen; assay type: biochemical; details: at 20,000 nM inhibitor; kinase activity remaining
T39 construct: purchased Millipore KinaseProfiler

DMPK = target: T40, DMPK (Homo sapiens, UniProt Q09013); experiment: Kinome profiler screen; assay type: biochemical; details: at 20,000 nM inhibitor; kinase activity remaining
T40 construct: purchased Millipore KinaseProfiler

ROCK-II(r) = target: T41, ROCK-II(r) (Rattus norvegicus, UniProt Q62868); experiment: Kinome profiler screen; assay type: biochemical; details: at 20,000 nM inhibitor; kinase activity remaining
T41 construct: purchased Millipore KinaseProfiler

[3] = test system: contextual and cued learning; experiment: Fear conditioning, Aβ42-infused mice; assay type: in vivo, C57BL/6J mice
[4] = at 20,000 nM inhibitor, kinase activity remaining

Compound: CN(C)c1cc(-c2ccncc2)c(-c2ccc3ccccc3c2)nn1 [MW108, N, N-dimethyl-6-(naphthalen-2-yl)-5-(pyridin-4-yl)pyridazin-3-amine]
- activity at 20 µM (ALK): 105%
- activity at 20 µM (Fyn): 95%
- activity at 20 µM (Mer): 98%
- activity at 20 µM (MEK1): 130%
- activity at 20 µM (EGFR(T790M)): 68%
- activity at 20 µM (CDK5/p35): 99%
- activity at 20 µM (SRPK2): 95%
- activity at 20 µM (PKG1β): 96%
- IC50 (JNK3): 1260 nM
- activity at 20 µM (JNK3; [4]): 5%
- activity at 20 µM (CDK5/p25): 106%
- activity at 20 µM [1]: 101%
- activity at 20 µM (PI3 Kinase (p110β/p85α)): 100%
- activity at 20 µM (ErbB4): 52%
- activity at 20 µM (cKit): 104%
- activity at 20 µM (Txk): 98%
- activity at 20 µM (CaMKIV): 100%
- activity at 20 µM (TBK1): 96%
- activity at 20 µM (TAO2): 81%
- activity at 20 µM (Hck): 93%
- activity at 20 µM (IKKβ): 98%
- activity at 20 µM (Plk1): 96%
- activity at 20 µM (Flt3): 108%
- activity at 20 µM (SGK3): 104%
- activity at 20 µM (TLK2): 99%
- activity at 20 µM (Abl): 99%
- activity at 20 µM [2]: 101%
- activity at 20 µM (BrSK1): 94%
- activity at 20 µM (MAPKAP-K3): 102%
- activity at 20 µM (Met(Y1248H)): 88%
- activity at 20 µM (FGFR1): 93%
- activity at 20 µM (IRAK4): 91%
- activity at 20 µM (IR): 100%
- IC50 (PI3K-C2α): > 30000 nM
- activity at 20 µM (PI3K-C2α; [4]): 29%
- activity at 20 µM (Tie2): 81%
- activity at 20 µM (ZAP-70): 92%
- activity at 20 µM (Fms(Y969C)): 100%
- activity at 20 µM (DRAK1): 86%
- activity at 20 µM (Abl (M351T)): 106%
- activity at 20 µM (CLK2): 103%
- activity at 20 µM (ASK1): 103%
- activity at 20 µM (DMPK): 108%
- activity at 20 µM (ROCK-II(r)): 97%
- cued learning ([3]; 24 hrs after contextual learning, control test): No difference was detected between groups
- contextual fear memory deficit ([3]; Aβ42-infused mice): ameliorated the contextual fear memory deficit
